What all share (type): in vivo
In assay [1] the test system is oral cavity. The experiment in a line: Flavor and sensory characteristics at use level of 25 ppm in water.
In assay [2] the test system is oral cavity. Briefly: Sensory evaluation in cherry-flavored hard candy. The conditions noted are these: 0.2 grams added to recipe yielding 200 grams of hard candy; versus control candy. As to the method:
The following formulation was prepared: […]
The above formulation was added to a stainless steel pot. With constant mixing, the formulation temperature was raised to 295° F. The pot was then removed from the heat, and 0.3 grams of cherry flavor containing the ingredients in equal amounts benzaldehyde, tolyl aldehyde, ethyl acetate, maltol, Davana oil and methyl heptinyl carbonate and 1.2 grams of citric acid was added. The resulting liquid candy was then deposited into molds, and the molds containing the liquid candy were cooled to room temperature, yielding 200 grams of finished hard candy. […] A second candy sample was prepared using the above recipe modified by the addition of 0.2 grams of menthyl succinamide prepared according to the procedure of Example I (A).

Assay [3] concerns oral cavity. The experiment in a line: Sensory evaluation in fruity citrus chewing gum. The conditions noted are these: 1 part by weight added to gum of 100 parts chicle, 4 parts flavor, 300 parts sucrose, 100 parts corn syrup; versus control gum. As to the method:
100 parts by weight of chicle were mixed with 4 parts by weight of a fruity citrus gum flavor which was a blend of lemon oil, ethyl butyrate, ethyl acetate, benzaldehyde, citral and alpha ionone in equal portions. To the resulting mixture, 300 parts by weight of sucrose and 100 parts by weight of corn syrup were added. Mixing was effected in a ribbon blender with jacketed sidewalls, manufactured by Baker Perkins Co. The resultant chewing gum blend was then manufactured into strips 1 inch in width and 0.1 inches in thickness. These strips were cut into lengths of 3 inches each. […] A second gum sample was prepared using the above recipe with the addition of 1 part by weight of menthyl N,N-dimethyl succinamide, prepared according to Example I(C).

Consider `CC(C)[C@@H]1CC[C@@H](C)C[C@H]1OC(=O)CCC(N)=O` [Example I(A), Butanoic acid, 4-amino-4-oxo, (5-methyl-2-(1-methylethyl)cyclohexyl)ester, (1R-(1α,2β,5α))-], for which, in the assay on oral cavity [1], the “Cooling Duration” value came out at 7.5 min and the “Onset Time” value is 8 to 25 s. Also, in the assay on oral cavity [2], the “cooling effect in hard candy” value was “moderately strong and substantive cooling effect”.

As to `CNC(=O)CCC(=O)O[C@@H]1C[C@H](C)CC[C@H]1C(C)C` [Example I(B), Butanoic acid, 4-methylamino-4-oxo, (5-methyl-2-(1-methylethyl)cyclohexyl)ester, (1R-(1α,2β,5α))], in the assay with oral cavity [1], the “Cooling Duration” value came out at 7 min and the “Onset Time” value lay within 15 to 25 s.

On to `CC(C)[C@@H]1CC[C@@H](C)C[C@H]1OC(=O)CCC(=O)N(C)C` [Example I(C), Butanoic acid, 4-dimethylamino-4-oxo, (5-methyl-2-(1-methylethyl)cyclohexyl)ester, (1R-(1α,2β,5α))-], for which the “cooling effect in chewing gum” value with oral cavity [3] is “pleasant and substantive cooling effect on the tongue and roof of the mouth”. Besides, in the assay with oral cavity [1], the “Cooling Duration” value was determined as 11.25 min and the “Onset Time” value was determined as 25 s.

For the compound `CC(C)[C@@H]1CC[C@@H](C)C[C@H]1OC(=O)CCC(=O)NCCO` [Example I(E), Butanoic acid, 4-(2-hydroxyethyl)amino-4-oxo, (5-methyl-2-(1-methylethyl)cyclohexyl) ester, (1R-(1α,2β,5α))-], in the assay on oral cavity [1], the “Cooling Duration” value was 15 min and the “Onset Time” value was found to be 11 s.

Turning to `CC(C)[C@@H]1CC[C@@H](C)C[C@H]1OC(=O)CCCCC(=O)O` [Example I(I), Hexanedioic acid, mono(5-methyl-2-(1-methylethyl)cyclohexyl) ester, (1R-(1α,2β,5α))-], in the assay with oral cavity [1], the “Cooling Duration” value was 10.5 min and the “Onset Time” value came out at 34 s.

For `CCNC(=O)CCC(=O)O[C@@H]1C[C@H](C)CC[C@H]1C(C)C` [I(D), Butanoic acid, 4-ethylamino-4-oxo, (5-methyl-2-(1-methylethyl)cyclohexyl)ester, (1R-(1α,2β,5α))-], in the assay with oral cavity [1], the “Cooling Duration” value was determined as 7 min and the “Onset Time” value turned out to be 35 s.

For “Pentanoic acid, 4-methylamino-4-oxo, (5-methyl-2-(1-methylethyl)cyclohexyl) ester, (1R-(1α,2β,5α))- [Example I(G)]”, in the assay on oral cavity [1], the “Cooling Duration” value stood at 5 min and the “Onset Time” value came out at 20 s.

(Values after US6884906B2, “Menthyl half acid ester derivatives, processes for preparing same, and uses thereof for their cooling/refreshing effect in consumable materials” (International Flavors & Fragrances Inc., priority 2003, dated 2005).)
